# Data as given in US6355799B1, “Substituted benzene compounds, process for their preparation, and herbicidal and defoliant compositions containing them” (ISK Americas Incorporated, priority 1997, dated 2002).
# How the values were obtained:
# Assay type in all cases: in vivo
# [1] = system: field corn (Zea mays L., var. Dekalb 535, CORN); assay: Post-emerge test, crop safety; settings: rating scale 0-100 (0 no damage, 100 complete death), 14 days after application
# Summary of the method: (§1)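 Fourteen days after spraying, crop and weed injury was graded visually from 0, no effect, to 100, every plant dead. Test substances were dissolved in acetone and applied at 15–1000 g ai/ha with a flat-fan nozzle. Application was either pre-emergence, one day after sowing, or post-emergence at the 2–3 leaf stage.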
# [2] = system: upland rice (Oryza sp., var. Tebonnet, RICE); assay: Post-emerge test, crop safety; settings: rating scale 0-100 (0 no damage, 100 complete death), 14 days after application
# Summary of the method: as §1
# [3] = system: redroot pigweed (Amaranthus retroflexus, AMARE); assay: Pre-emerge test, greenhouse herbicide activity screening; settings: rating scale 0-100, 14 days after application
# Summary of the method: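 Compounds in acetone were track-sprayed at 15-1000 g ai/ha (187 l/ha) on sandy loam pots: pre-emerge one day after seeding, post-emerge at 2-3 leaf stage with 0.25% v/v non-ionic surfactant. Phytotoxicity was rated 14 days later on a 0 (no damage) to 100 (complete death) scale.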
# [4] = system: velvetleaf (Abutilon theophrasti, ABUTH); assay: Post-emerge test, greenhouse herbicide activity screening; settings: rating scale 0-100 (0 no damage, 100 complete death), 14 days after application
# Summary of the method: (§2)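 Compounds in acetone were track-sprayed at 187 l/ha, 15–1000 g ai/ha, onto sandy loam pots. Pre-emerge seeds were sown one day before spraying, with surface watering afterwards. Post-emerge plants were at the 2–3 leaf stage and sprayed with 0.25% v/v non-ionic surfactant. Injury was rated 0–100 at 14 days.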
# [5] = system: sicklepod (Cassia obtusifolia, CASOB); assay: as above; settings: rating scale 0-100 (0 no damage, 100 complete death), 14 days after application
# Summary of the method: as §2
# [6] = system: lambsquarters (Chenopodium album, CHEAL); assay: as above; settings: rating scale 0-100 (0 no damage, 100 complete death), 14 days after application
# Summary of the method: as §2
# [7] = system: ivyleaf morningglory (Ipomoea hederacea, IPOHE); assay: as above; settings: rating scale 0-100 (0 no damage, 100 complete death), 14 days after application
# Summary of the method: as §2
# [8] = system: green foxtail (Setaria viridis, SETVI); assay: as above; settings: rating scale 0-100 (0 no damage, 100 complete death), 14 days after application
# Summary of the method: as §2
# [9] = system: large crabgrass (Digitaria sanguinalis, DIGSA); assay: as above; settings: rating scale 0-100 (0 no damage, 100 complete death), 14 days after application
# Summary of the method: as §2
# [10] = system: barnyardgrass (Echinochloa crus-galli, ECHCG); assay: as above; settings: rating scale 0-100 (0 no damage, 100 complete death), 14 days after application
# Summary of the method: as §2
# [11] = system: common ragweed (Ambrosia artemisizfolia L., AMBEL); assay: as above; settings: rating scale 0-100 (0 no damage, 100 complete death), 14 days after application
# Summary of the method: as §2
# [12] = system: johnsongrass (Sorghum halepense, SORHA); assay: as above; settings: rating scale 0-100 (0 no damage, 100 complete death), 14 days after application
# Summary of the method: as §2
# [13] = system: redroot pigweed (Amaranthus retroflexus, AMARE); assay: as above; settings: rating scale 0-100 (0 no damage, 100 complete death), 14 days after application
# Summary of the method: as §2
# [14] = system: velvetleaf (Abutilon theophrasti, ABUTH); assay: Pre-emerge test, greenhouse herbicide activity screening; settings: rating scale 0-100, 14 days after application
# Summary of the method: as §1
# [15] = system: sicklepod (Cassia obtusifolia, CASOB); assay: as above; settings: rating scale 0-100, 14 days after application
# Summary of the method: as §1
# [16] = system: lambsquarters (Chenopodium album, CHEAL); assay: as above; settings: rating scale 0-100, 14 days after application
# Summary of the method: as §1
# [17] = system: ivyleaf morningglory (Ipomoea hederacea, IPOHE); assay: as above; settings: rating scale 0-100, 14 days after application
# Summary of the method: as §1
# [18] = system: green foxtail (Setaria viridis, SETVI); assay: as above; settings: rating scale 0-100, 14 days after application
# Summary of the method: as §1
# [19] = system: large crabgrass (Digitaria sanguinalis, DIGSA); assay: as above; settings: rating scale 0-100, 14 days after application
# Summary of the method: as §1
# [20] = system: barnyardgrass (Echinochloa crus-galli, ECHCG); assay: as above; settings: rating scale 0-100, 14 days after application
# Summary of the method: as §1
# [21] = system: common ragweed (Ambrosia artemisizfolia L., AMBEL); assay: as above; settings: rating scale 0-100, 14 days after application
# Summary of the method: as §1
# [22] = system: johnsongrass (Sorghum halepense, SORHA); assay: as above; settings: rating scale 0-100, 14 days after application
# Summary of the method: as §1
# [23] = system: field corn (Zea mays L., var. Dekalb 535, CORN); assay: Pre-emerge test, crop safety; settings: rating scale 0-100, 14 days after application
# Summary of the method: (§3)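 Sandy loam pots; pre-emerge: sown 1 d pre-spray, surface-watered after, then bottom-watered. Post-emerge: sown 8–21 d before, 2–3 leaf stage, + 0.25% v/v NIS, bottom-watered. Acetone, 187 l/ha track spray, 15–1000 g ai/ha. 0–100 injury score, day 14.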
# [24] = system: upland rice (Oryza sp., var. Tebonnet, RICE); assay: Pre-emerge test, crop safety; settings: rating scale 0-100, 14 days after application
# Summary of the method: as §3
compound,measurement,setting,value
COc1c(Cl)cc(F)c(-n2c(=O)cc(C(F)(F)F)n(C)c2=O)c1CC(C)(Cl)C(=O)OCC(C)C (stereo not drawn) [14-40],Post-emerge phytotoxicity rating CORN (crop damage),[1]; Rate 63 g ai/ha,35
same,Post-emerge phytotoxicity rating CORN (crop damage),[1]; Rate 250 g ai/ha,70
same,Post-emerge phytotoxicity rating RICE (crop damage),[2]; Rate 63 g ai/ha,15
same,Post-emerge phytotoxicity rating RICE (crop damage),[2]; Rate 250 g ai/ha,75
same,"Pre-emerge herbicidal activity, phytotoxicity rating AMARE",[3]; 63 g ai/ha,100
same,"Pre-emerge herbicidal activity, phytotoxicity rating AMARE",[3]; 250 g ai/ha,100
same,"Post-emerge Herbicidal Activity, phytotoxicity rating ABUTH",[4]; Rate 63 g ai/ha,90
same,"Post-emerge Herbicidal Activity, phytotoxicity rating ABUTH",[4]; Rate 250 g ai/ha,100
same,"Post-emerge Herbicidal Activity, phytotoxicity rating CASOB",[5]; Rate 63 g ai/ha,20
same,"Post-emerge Herbicidal Activity, phytotoxicity rating CASOB",[5]; Rate 250 g ai/ha,60
same,"Post-emerge Herbicidal Activity, phytotoxicity rating CHEAL",[6]; Rate 63 g ai/ha,100
same,"Post-emerge Herbicidal Activity, phytotoxicity rating CHEAL",[6]; Rate 250 g ai/ha,100
same,"Post-emerge Herbicidal Activity, phytotoxicity rating IPOHE",[7]; Rate 63 g ai/ha,30
same,"Post-emerge Herbicidal Activity, phytotoxicity rating IPOHE",[7]; Rate 250 g ai/ha,60
same,"Post-emerge Herbicidal Activity, phytotoxicity rating SETVI",[8]; Rate 63 g ai/ha,85
same,"Post-emerge Herbicidal Activity, phytotoxicity rating SETVI",[8]; Rate 250 g ai/ha,99
same,"Post-emerge Herbicidal Activity, phytotoxicity rating DIGSA",[9]; Rate 63 g ai/ha,20
same,"Post-emerge Herbicidal Activity, phytotoxicity rating DIGSA",[9]; Rate 250 g ai/ha,40
same,"Post-emerge Herbicidal Activity, phytotoxicity rating ECHCG",[10]; Rate 63 g ai/ha,100
same,"Post-emerge Herbicidal Activity, phytotoxicity rating ECHCG",[10]; Rate 250 g ai/ha,100
same,"Post-emerge Herbicidal Activity, phytotoxicity rating AMBEL",[11]; Rate 63 g ai/ha,90
same,"Post-emerge Herbicidal Activity, phytotoxicity rating AMBEL",[11]; Rate 250 g ai/ha,100
same,"Post-emerge Herbicidal Activity, phytotoxicity rating SORHA",[12]; Rate 63 g ai/ha,20
same,"Post-emerge Herbicidal Activity, phytotoxicity rating SORHA",[12]; Rate 250 g ai/ha,20
same,"Post-emerge Herbicidal Activity, phytotoxicity rating AMARE",[13]; Rate 63 g ai/ha,100
same,"Post-emerge Herbicidal Activity, phytotoxicity rating AMARE",[13]; Rate 250 g ai/ha,100
same,"Pre-emerge herbicidal activity, phytotoxicity rating ABUTH",[14]; 63 g ai/ha,100
same,"Pre-emerge herbicidal activity, phytotoxicity rating ABUTH",[14]; 250 g ai/ha,100
same,"Pre-emerge herbicidal activity, phytotoxicity rating CASOB",[15]; 63 g ai/ha,0
same,"Pre-emerge herbicidal activity, phytotoxicity rating CASOB",[15]; 250 g ai/ha,0
same,"Pre-emerge herbicidal activity, phytotoxicity rating CHEAL",[16]; 63 g ai/ha,95
same,"Pre-emerge herbicidal activity, phytotoxicity rating CHEAL",[16]; 250 g ai/ha,100
same,"Pre-emerge herbicidal activity, phytotoxicity rating IPOHE",[17]; 63 g ai/ha,0
same,"Pre-emerge herbicidal activity, phytotoxicity rating IPOHE",[17]; 250 g ai/ha,0
same,"Pre-emerge herbicidal activity, phytotoxicity rating SETVI",[18]; 63 g ai/ha,50
same,"Pre-emerge herbicidal activity, phytotoxicity rating SETVI",[18]; 250 g ai/ha,100
same,"Pre-emerge herbicidal activity, phytotoxicity rating DIGSA",[19]; 63 g ai/ha,60
same,"Pre-emerge herbicidal activity, phytotoxicity rating DIGSA",[19]; 250 g ai/ha,100
same,"Pre-emerge herbicidal activity, phytotoxicity rating ECHCG",[20]; 63 g ai/ha,10
same,"Pre-emerge herbicidal activity, phytotoxicity rating ECHCG",[20]; 250 g ai/ha,80
same,"Pre-emerge herbicidal activity, phytotoxicity rating AMBEL",[21]; 63 g ai/ha,30
same,"Pre-emerge herbicidal activity, phytotoxicity rating AMBEL",[21]; 250 g ai/ha,90
same,"Pre-emerge herbicidal activity, phytotoxicity rating SORHA",[22]; 63 g ai/ha,0
same,"Pre-emerge herbicidal activity, phytotoxicity rating SORHA",[22]; 250 g ai/ha,40
same,"Pre-emerge phytotoxicity rating, crop damage CORN",[23]; 63 g ai/ha,0
same,"Pre-emerge phytotoxicity rating, crop damage CORN",[23]; 250 g ai/ha,0
same,"Pre-emerge phytotoxicity rating, crop damage RICE",[24]; 63 g ai/ha,20
same,"Pre-emerge phytotoxicity rating, crop damage RICE",[24]; 250 g ai/ha,60
